The source of these data is PMC10511752, “Natural product-inspired synthesis of coumarin–chalcone hybrids as potential anti-breast cancer agents” (Frontiers in Pharmacology, 2023).

One may read the IC50 as the concentration needed to halve the response being measured. A word on the melting point: it is the temperature, or range, at which the solid turns liquid.

Series [1] deals with normal human embryonic kidney cell line HEK-293. Nature of the series: MTT assay, toxicity on normal cell line HEK-293. It is filed as cell-based. The following applies: HEK293, normal HEK-293 cells (toxicity), 48 h, read-out: IC50 values (mean ± SEM) HEK-293. A general note: Tetrazolium dyes change colour on reduction, which living cells bring about.
Description: (§3) MCF-7, MDA-MB231, and HEK293 cell lines were purchased from ATCC (Manassas, VA, United States). […] They were maintained in Dulbecco’s modified Eagle medium (DMEM) supplemented with 10% fetal bovine serum (FBS). Cells were cultured at 37°C and 5% CO2. Before the experiments, cells were cultured in phenol red-free DMEM supplemented with 10% charcoal stripped fetal bovine serum.
Series [2] deals with MCF-7 (breast cancer) cells. The experiment in a line: MTT cell proliferation assay, MCF-7. The class given is cell-based. The conditions noted are these: Homo sapiens, MCF7, MCF-7 (ER +ve), 48 h, read-out: IC50 values (mean ± SEM) MCF-7.
Description: as §3
For series [3], the system named is MDA-MB-231 (breast cancer) cells. The experiment in a line: MTT cell proliferation assay, MDA-MB-231. The class given is cell-based. The following applies: Homo sapiens, MDA-MB-231 (ER -ve), 48 h, read-out: IC50 values (mean ± SEM) MDA-MB-231.
Description: as §3
The test system of series [4] is Ishikawa (endometrial cancer) cells. Nature of the series: MTT cell proliferation assay, Ishikawa. The class given is cell-based. The following applies: Homo sapiens, 48 h, read-out: IC50 values (mean ± SEM) Ishikawa. As for the experimental part:
(§1) We conducted an in vitro MTT assay to evaluate the anti-cancer activity of the synthesized neo-tanshinlactone–chalcone hybrid compounds, 26–37, against four human cancer cell lines, namely, MCF-7 (breast cancer), MDA-MB-231 (breast cancer), Ishikawa (endometrial cancer), and HeLa (cervical cancer). The toxicity of the hybrid molecules on the normal human embryonic kidney cell line HEK-293 was also evaluated.
MCF-7, MDA-MB231, and HEK293 cell lines were purchased from ATCC (Manassas, VA, United States). Ishikawa cell lines were obtained from the European Collection of Cell Cultures. They were maintained in Dulbecco’s modified Eagle medium (DMEM) supplemented with 10% fetal bovine serum (FBS). Cells were cultured at 37°C and 5% CO2. Before the experiments, cells were cultured in phenol red-free DMEM supplemented with 10% charcoal stripped fetal bovine serum.
(§2) The synthesized hybrid compounds were tested for their anti-cancer activity using the MTT reduction assay on 2.5 × 10^3 cells per well that were seeded in 100 µL DMEM supplemented with 10% FBS in each well of 96-well microculture plates. After seeding, the cells were incubated for 24 h at 37°C in a CO2 incubator. The required concentrations of the compounds were achieved by diluting the solutions in the culture medium. The media was removed from the wells after 48 h, and 100 µL of MTT (0.5 mg/mL) was added to each well. The plates were then incubated for an additional 3 h. After carefully removing the supernatant from each well, the formazan crystals were dissolved in 100 µL of DMSO. The absorbance was then recorded at a wavelength of 540 nm ([Saquib et al., 2021]; [Gupta et al., 2022]; [Iqbal et al., 2023])

The subject of series [5] is HeLa (cervical cancer) cells. The experiment in a line: MTT cell proliferation assay, HeLa. It is filed as cell-based. The following applies: Homo sapiens, 48 h, read-out: IC50 values (mean ± SEM) HeLa. The procedure:
as §1, §2

Another series has as its system tubulin. Also noted: method as in Miller et al., 1997. The following applies: ref Miller et al., 1997; read-out: IC50, inhibition of polymerization of tubulin; cited from earlier work.

`COc1cc(OC)cc(C(=O)/C=C/c2cc(=O)oc3c2ccc2c(OC)cccc23)c1` [Compound 30, (E)-4-(3-(3,5-Dimethoxyphenyl)-3-oxoprop-1-en-1-yl)-7-methoxy-2H-benzo[h]chromen-2-one]: the IC50 in series [1] was more than 20 µM; in series [2], 6.8 ± 1.48 µM; in series [3], 8.5 ± 1.12 µM.

With `COc1cccc2c1ccc1c(/C=C/C(=O)c3ccccc3)cc(=O)oc12` [Compound 29, (E)-7-Methoxy-4-(3-oxo-3-phenylprop-1-en-1-yl)-2H-benzo[h]chromen-2-one], the melting point is 180 to 182 °C. Also, the IC50 in series [4] is more than 20 µM. The IC50 in series [5] was more than 20 µM. The IC50 in series [1] was more than 20 µM. Moreover, the IC50 in series [2] was more than 20 µM. Besides, in series [3], the IC50 was more than 20 µM.

As to `COc1cccc2c1ccc1c(/C=C/C(=O)c3ccc(Cl)c(Cl)c3)cc(=O)oc12` [Compound 37], the IC50 in series [4] was 18.6 ± 2.56 µM; in series [5], 17.2 ± 2.88 µM; in series [1], more than 20 µM; in series [2], more than 20 µM; in series [3], more than 20 µM.

`COc1ccc(C(=O)/C=C/c2cc(=O)oc3c2ccc2c(OC)cccc23)cc1` [Compound 28, (E)-7-Methoxy-4-(3-(4-methoxyphenyl)-3-oxoprop-1-enyl)-2H-benzo[h]chromen-2-one] yielded a melting point of 236 to 237 °C. Moreover, in series [4], the IC50 is more than 20 µM. In addition, in series [5], the IC50 is more than 20 µM. Besides, the IC50 in series [1] was more than 20 µM. In addition, the IC50 in series [2] came out at 18.6 ± 2.3 µM. In series [3], the IC50 was more than 20 µM.

Turning to `COc1cc(C(=O)/C=C/c2cc(=O)oc3c2ccc2ccccc23)cc(OC)c1OC` [Compound 31, (E)-4-(3-Oxo-3-(3,4,5-trimethoxyphenyl)prop-1-enyl)-2H-benzo[h]chromen-2-one], the IC50 in series [4] was more than 20 µM; in series [5], more than 20 µM; in series [1] it was more than 20 µM; in series [2], 14.4 ± 1.68 µM; in series [3], 15.7 ± 1.01 µM.

With `O=C(/C=C/c1cc(=O)oc2c1ccc1ccccc12)c1ccc(Cl)cc1` [Compound 34], the IC50 in series [4], in series [5], in series [1], in series [2] and in series [3] was more than 20 µM throughout.

`COc1cc(C(=O)/C=C/c2cc(=O)oc3c2ccc2c(OC)cccc23)cc(OC)c1OC` [Compound 33, (E)-7-Methoxy-4-(3-oxo-3-(3,4,5-trimethoxyphenyl)prop-1-enyl)-2H-benzo[h] chromen-2-one] registered a melting point of more than 260 °C. The IC50 in series [4] was more than 20 µM. Besides, the IC50 in series [5] was more than 20 µM. Further, the IC50 in series [1] was more than 20 µM. The IC50 in series [2] was 16.3 ± 2.3 µM. Moreover, the IC50 in series [3] is more than 20 µM.

Regarding `COc1cc2c(ccc1=O)[C@H]1CC[C@]3(C)[C@@H](O)CC[C@H]3[C@@H]1CC2` [2-Methoxyestradiol–colchicine hybrid A], the half-maximal inhibitory concentration (IC50) in the series on tubulin was 2.1 µM.

Molecule `COc1cc(OC)cc(C(=O)/C=C/c2cc(=O)oc3c2ccc2ccccc23)c1` [Compound 26, (E)-4-(3-(3,5-Dimethoxyphenyl)-3-oxoprop-1-en-1-yl)-2H-benzo[h]chromen-2-one] came in with a melting point of 272 to 273 °C. In series [4], the IC50 is more than 20 µM. Besides, the IC50 in series [5] is more than 20 µM. In addition, in series [1], the IC50 is more than 20 µM. Besides, in series [2], the IC50 turned out to be 17.2 ± 1.75 µM. Also, the IC50 in series [3] worked out at 16.6 ± 1.25 µM.

As for `COc1cccc2c1ccc1c(/C=C/C(=O)c3ccc(Cl)cc3)cc(=O)oc12` [Compound 35], the IC50 in series [4], in series [5], in series [1], in series [2] and in series [3] was more than 20 µM throughout.

Turning to `O=C(/C=C/c1cc(=O)oc2c1ccc1ccccc12)c1ccccc1` [Compound 32, (E)-4-(3-Oxo-3-phenylprop-1-enyl)-2H-benzo[h]chromen-2-one], the melting point lay within 245 to 246 °C. For the same molecule, the IC50 in series [4] was more than 20 µM. Further, the IC50 in series [5] is more than 20 µM. Also, in series [1], the concentration for half-maximal inhibition (IC50) is more than 20 µM. Moreover, the IC50 in series [2] is more than 20 µM. In series [3], the IC50 is more than 20 µM.

With `COc1cc2c(cc1O)CC[C@@H]1[C@@H]2CC[C@]2(C)[C@@H](O)CC[C@@H]12` [2-methoxyestradiol (2-ME), 2-methoxyestradiol], the IC50 in the series with tubulin is 14.2 µM.

As to `O=C(/C=C/c1cc(=O)oc2c1ccc1ccccc12)c1ccc(Cl)c(Cl)c1` [Compound 36], the IC50 is 19.2 ± 3.12 µM in series [4]; 16.8 ± 3.14 µM in series [5]; more than 20 µM in series [1]; more than 20 µM in series [2]; more than 20 µM in series [3].

On to `COc1ccc(C(=O)/C=C/c2cc(=O)oc3c2ccc2ccccc23)cc1` [Compound 27, (E)-4-(3-(4-Methoxyphenyl)-3-oxoprop-1-enyl)-2H-benzo[h]chromen-2-one], for which the IC50 in series [4] is 17.4 ± 2.72 µM; in series [5] it was more than 20 µM; in series [1], more than 20 µM; in series [2] it was more than 20 µM; in series [3] it was more than 20 µM.
